Experimental data: patent publication US11389423B2, “Pharmaceutical composition, excipient for the composition and use of the composition” (priority 2018, dated 2022)

Legend:
rats (male and female) = experiment: Single dose (acute) toxicity study in rats; assay type: in vivo
Method: The single-dose (acute) toxicity study was carried out with different groups of rats and mice (male and female) and according to the procedures recommended by OECD (2001) and ANVISA (2013).
After a 6 h-fasting period, the animals' body weight was determined, and the dose of the synthetic CBD was calculated. Two single doses (1000 and 2000 mg/kg) of synthetic CBD were administered orally (with the aid of a gavage probe) and intraperitoneally in different groups of rats and mice (male and female). Other different groups of rodents were treated with placebo and were considered as control groups.
The animals were carefully observed for any toxicity signs within the first eight hours after treatment, and daily for a period of 14 days. On the 15th day all animals were euthanized, and the respective anatomopathological investigations were performed on the 15th day after the treatments.

[1] = system: striatal levels of dopamine, DOPAC and AVM; experiment: Determination of striatal dopamine, DOPAC and HVA levels (HPLC-ECD), MPTP model; assay type: in vivo, rats
Method: For the experiments with MPTP (neuroprotection), the animals were divided into the following experimental groups: • MPTP+placebo • MPTP+CBD-SINT 12 mg/kg • MPTP+CBD-SINT 36 mg/kg • MPTP+CBD-SINT 120 mg/kg • Sham+placebo • Naive
CBD-SINT and placebo were administered orally (gavage) for 18 days prior to the administration of the neurotoxin by stereotactic surgery, and for another 10 days after surgery. After the administration of the neurotoxin, the behavioral (locomotor activity) and biochemical (brain dopamine dosage) parameters were evaluated after 24 hours and after 10 days. The memory tests (Morris water maze) were performed daily from day 1 to day 10 after the administration of the neurotoxin (FIG. 13).
The rats were submitted to stereotactic surgery (stereotactic—David Kopf, model 957L) and received bilateral microinfusion of MPTP or 6-OHDA (different groups of rats) directly into the substantia nigra. For surgery, the following stereotaxic coordinates were used: anteroposterior: 5.0 mm from the bregma; mediolateral: ±2.1 mm from the midline and dorsoventral: −7.7 mm from the cranial vault (Paxinos and Watson, 1986). Then, 100 μg MPTP (diluted in 1 μL saline, with a flow of 0.33 μL/min) or 8 μg 6-OHDA (diluted in 2 μL saline with 0.2 μg/μL ascorbic acid, with a flow rate of 0.33 μL/min) were injected. The microinfusions were performed with the aid of a needle (30 gauge) connected to a polyethylene tube adapted to a […] micro-syringe (Hamilton, USA), which in turn, is fitted into an infusion pump (Harvard Apparatus, USA). After the end of the microinfusion, the needle was kept in place for another 2 minutes to prevent reflux of the neurotoxins. Then, the scalp was sutured, and the animals were removed from the stereotaxic. The rats were then placed in its original cages. The animals in the Sham groups were subject to the same surgical procedure, however without receiving the neurotoxins, being only introduced to the needle in the same stereotactic coordinates. The rats of naive groups were not subject to stereotactic surgery but were removed from the housing cage for handling for a few hours.
After the last set of experiments, the animals from the nigrostriatal treatment with MPTP and its respective controls were euthanized by decapitation. The levels of dopamine (DA) and its metabolites 3,4-dihydroxyphenylacetic acid (DOPAC) and homovanilic acid (HVA) were determined by high-performance liquid chromatography with an electrochemical detector (HPLC-ECD) according to Luo et al. (2009).
Briefly, the striatum was dissected, weighed, and homogenized in 0.2 M cold perchloric acid. The sample was then centrifuged twice at 14,000 g for 15 min at 4° C. […]

[2] = system: rats with 6-OHDA microinfusion into the substantia nigra; experiment: Morris water maze (cued test/memory version), 6-OHDA model; assay type: in vivo; settings: 6-OHDA rats, 36 or 120 mg/kg orally, day 18 to day 28
Method: For the experiments with 6-OHDA, the animals were divided into the following groups: • 6-OHDA+placebo • 6-OHDA+CBD-SINT 12 mg/kg • 6-OHDA+CBD-SINT 36 mg/kg • 6-OHDA+CBD-SINT 120 mg/kg • Sham+placebo • Naive
After the recovery period, CBD-SINT and placebo were administered orally (gavage) for 28 days. Locomotor activity tests were performed only at the end of treatments (day 28). The memory tests (Morris water maze) were performed daily from day 18 to day 28 (FIG. 14).
The rats were submitted to stereotactic surgery (stereotactic—David Kopf, model 957L) and received bilateral microinfusion of MPTP or 6-OHDA (different groups of rats) directly into the substantia nigra. For surgery, the following stereotaxic coordinates were used: anteroposterior: 5.0 mm from the bregma; mediolateral: ±2.1 mm from the midline and dorsoventral: −7.7 mm from the cranial vault (Paxinos and Watson, 1986). Then, 100 μg MPTP (diluted in 1 μL saline, with a flow of 0.33 μL/min) or 8 μg 6-OHDA (diluted in 2 μL saline with 0.2 μg/μL ascorbic acid, with a flow rate of 0.33 μL/min) were injected. […]
The animals were subjected to the same procedure until the four starting points are completed. […] The latency (time it takes the animals to find the platform) and the speed of the animals were quantified by the 2020 Plus Tracking System software.

[3] = 1000 mg/kg and 2000 mg/kg intraperitoneally, single dose

C=C(C)[C@@H]1CCC(C)=C[C@H]1c1c(O)cc(CCCCC)cc1O [CBD-SINT, Cannabidiol]
abdominal contortions during the first 8 hours (rats (male and female); [3]): occasional abdominal contortions
activity during the first 8 hours of observation (rats (male and female); [3]): significant decrease in its activity
daily feed and water consumption compared to placebo (rats (male and female); 1000 and 2000 mg/kg, oral or intraperitoneal): no change
final body weight and body weight gains vs placebo (rats (male and female); 1000 and 2000 mg/kg, oral or intraperitoneal, 14 days): similar
appearance and general behavior pattern until the end of the 14-days observation (rats (male and female); 1000 and 2000 mg/kg, oral or intraperitoneal, after the first 8 h): no significant changes
absolute (g) or relative (%) weight of all organs vs placebo (rats (male and female); after 14 days): no significant differences
histopathological analyzes (rats (male and female); day 15): no significant changes
macroscopic examination of vital organs (rats (male and female); day 15): did not disclose any abnormalities
deaths (LD50 not set forth) (rats (male and female); doses up to 2000 mg/kg orally or intraperitoneally, 14 days): no deaths were observed
striatal levels of DOPAC ([1]; MPTP rats, 12 mg/kg orally): significantly increase
striatal levels of dopamine ([1]; MPTP rats, 12 mg/kg orally): significantly increase
levels of all markers after treatment vs naive and Sham groups ([1]; MPTP rats, 12, 36 and 120 mg/kg orally): statistically lower
striatal concentration of all evaluated markers (dopamine, DOPAC and AVM) ([1]; MPTP rats, 36 and 120 mg/kg orally): increased
latency time to find the platform (memory deficit) [2]: did not show this deficit
